# Reference: patent publication US20210386730A1 (priority 2020, published 2021)
# Assay: Solubility of indacaterol maleate and glycopyrrolate
# Type: physicochemical
# Method: In a formulation it is necessary to be sure that the active pharmaceutical ingredients (API) are dissolved completely.
# 0.02% tween-80: […].
# pH=3 0.02% tween-80: […], adjust pH to 3 with hydrochloric acid. Other solutions were similarly prepared. The percentages mentioned above are percentages by weight.
smiles,measurement,setting,value
"CCc1cc2c(cc1CC)CC(NC[C@H](O)c1ccc(O)c3[nH]c(=O)ccc13)C2.O=C(O)/C=C\C(=O)O [Indacaterol Maleate, (R)-5-[2-(5,6-Diethylindan-2-ylamino)-1-hydroxyethyl]-8-hydroxy-1H-quinolin-2-one maleate]",Solubility,0.02% tween-80,29.52 mg/100 ml
same,Solubility,Purified water,29.95 mg/100 ml
same,Solubility (in words),cyclodextrin added,improved significantly
same,Solubility (in words),in purified water,not sufficiently soluble
same,Solubility,pH = 3 0.02% tween-80,32.17 mg/100 ml
same,Solubility,pH = 3 2.5% SBECD solution,351.46 mg/100 ml
same,Solubility,pH = 3 5% SBECD solution,539.5 mg/100 ml
same,Solubility,pH = 3 Purified water,31.21 mg/100 ml
same,Solubility,pH = 3.5 0.02% tween-80,30.8 mg/100 ml
same,Solubility,pH = 3.5 Purified water,29.97 mg/100 ml
same,Solubility,pH = 4 0.02% tween-80,30.91 mg/100 ml
same,Solubility,pH = 4 0.5% SBECD solution,55.523 mg/100 ml
same,Solubility,pH = 4 1% SBECD solution,161.866 mg/100 ml
same,Solubility,pH = 4 2% SBECD solution,211.4 mg/100 ml
same,Solubility,pH = 4 5% SBECD solution,316 mg/100 ml
same,Solubility,pH = 4 Purified water,30.82 mg/100 ml
same,Solubility,pH = 4.5 0.02% tween-80,30.41 mg/100 ml
same,Solubility,pH = 4.5 Purified water,30.32 mg/100 ml
same,Solubility,pH = 5 0.02% tween-80,30.84 mg/100 ml
same,Solubility,pH = 5 Purified water,28.98 mg/100 ml
same,Solubility (in words),tween 80 added,insufficient
